The values that follow come from PubChem BioAssay AID330 (DTP/NCI, 2004).

Each structure is given as a SMILES string. “And” between values parts separate entries of the source, which are not always exact repeats. Equal entries are not always repeated. Toxic doses and inconclusive results are not listed.

This assay has as its system P388 leukemia ip, CD2F1 mice, survival T/C. Briefly: NCI In Vivo Anticancer Drug Screen. Data for tumor model P388 Leukemia (intraperitoneal) in CD2F1 (CDF1) mice. The following applies: endpoint: median survival time, higher = longer survival. As to the method: The antitumor activity of compounds was measured in mice bearing transplantable tumors. Survival or tumor size were measured and the results are expressed as the measurement made in the treated group (T) divided by the measurement made in the vehicle treated control group (C). The tumor model used in this assay is P388 Leukemia (intraperitoneal) in CD2F1 (CDF1) mice

[1] abbreviates: dose: 50.0 mg/kg/injection, schedule: Q01DX009 (ip), vehicle: saline with Tween-80.
Where [2] appears, read: dose: 100.0 mg/kg/injection, schedule: Q01DX009 (ip), vehicle: saline with Tween-80.
Setting [3] is: dose: 200.0 mg/kg/injection, schedule: Q01DX009 (ip), vehicle: saline with Tween-80.
[4] abbreviates: dose: 25.0 mg/kg/injection, schedule: Q01DX009 (ip), vehicle: saline with Tween-80.
Where [5] appears, read: dose: 50.0 mg/kg/injection, schedule: Q01DX009 (ip), vehicle: suspension in saline.
Where [6] appears, read: dose: 100.0 mg/kg/injection, schedule: Q01DX009 (ip), vehicle: suspension in saline.
[7] abbreviates: dose: 200.0 mg/kg/injection, schedule: Q01DX009 (ip), vehicle: suspension in saline.
[8] abbreviates: dose: 50.0 mg/kg/injection, schedule: Q01DX009 (ip), vehicle: saline.
The mark [9] stands for this setting: dose: 6.25 mg/kg/injection, schedule: Q01DX009 (ip), vehicle: saline.
[10] abbreviates: dose: 25.0 mg/kg/injection, schedule: Q04DX003 (ip), vehicle: saline.
[11] abbreviates: dose: 50.0 mg/kg/injection, schedule: Q04DX003 (ip), vehicle: saline.
[12] abbreviates: dose: 100.0 mg/kg/injection, schedule: Q04DX003 (ip), vehicle: saline.
The mark [13] stands for this setting: dose: 200.0 mg/kg/injection, schedule: Q04DX003 (ip), vehicle: saline with Tween-80.
Where [14] appears, read: dose: 400.0 mg/kg/injection, schedule: Q01DX009 (ip), vehicle: saline with Tween-80.
Setting [15] is: dose: 50.0 mg/kg/injection, schedule: Q01DX005 (ip), vehicle: saline with Tween-80.
[16] abbreviates: dose: 100.0 mg/kg/injection, schedule: Q01DX005 (ip), vehicle: saline with Tween-80.

As for `COc1ccc(C)cc1C(=C=C=C=C(c1cc(C)ccc1OC)c1ccccc1OCc1ccccc1)c1ccccc1OCc1ccccc1`, the T/C by setting is: (dose: 25.0 mg/kg/injection, schedule: Q01DX009 (ip), vehicle: Klucel (hydroxypropylcellulose) (HPC)) 101 % of control; (dose: 50.0 mg/kg/injection, schedule: Q01DX009 (ip), vehicle: Klucel (hydroxypropylcellulose) (HPC)) 100 % of control; (dose: 100.0 mg/kg/injection, schedule: Q01DX009 (ip), vehicle: Klucel (hydroxypropylcellulose) (HPC)) 93 % of control.
As for `CCCCCCCCCCOC(=O)c1ccc(O)cc1`, the T/C by setting is: under setting [1], 97 % of control; under setting [2], 102 % of control; under setting [3], 97 % of control.
Consider `COC1C=COC2(C)Oc3c(C)c(O)c4c(O)c(c(C5SCCS5)c(O)c4c3C2=O)NC(=O)/C(C)=C\C=CC(C)C(O)C(C)C(O)C(C)C(OC(C)=O)C1C` (stereo not drawn), for which the T/C runs as follows: under setting [4], 100 % of control and 92 % of control; under setting [1], 105 % of control and 106 % of control and 92 % of control; under setting [2], 100 % of control and 108 % of control; under setting [3], 109 % of control and 111 % of control and 115 % of control.
For `Cn1c([N+](=O)[O-])cnc1/C=N\N1CC(CN2CCOCC2)OC1=O` (stereo not drawn), the T/C is 100 % of control under setting [5], 100 % of control under setting [6] and 100 % of control under setting [7].
Consider `CC1CN1P(=S)(N1CCCCC1)N1CC1C` (stereo not drawn), for which the T/C (dose: 25.0 mg/kg/injection, schedule: Q01DX009 (ip), vehicle: suspension in saline) was 100 % of control; the T/C under setting [5] is 96 % of control; the T/C under setting [6] is 102 % of control; the T/C under setting [7] was 105 % of control.
In the case of `CC1=CC(=C2C(=O)c3ccccc3C2=O)C=CN1CCCN1CCCCC1`, the T/C was 103 % of control and 119 % of control under setting [8]; 101 % of control and 106 % of control (dose: 100.0 mg/kg/injection, schedule: Q01DX009 (ip), vehicle: saline); 106 % of control and 123 % of control (dose: 200.0 mg/kg/injection, schedule: Q01DX009 (ip), vehicle: saline); 100 % of control (dose: 400.0 mg/kg/injection, schedule: Q01DX009 (ip), vehicle: saline).
On to `O=C1C=CC2=C3c4cc(O)c(O)cc4CC3(O)COC2=C1O` (stereo not drawn), for which the T/C is 102 % of control under setting [9]; 108 % of control (dose: 12.5 mg/kg/injection, schedule: Q01DX009 (ip), vehicle: saline); 118 % of control (dose: 25.0 mg/kg/injection, schedule: Q01DX009 (ip), vehicle: saline); 108 % of control under setting [8].
Take `N#CC(C#N)(c1ccccc1)N1CCOCC1`: the T/C is 109 % of control under setting [10]; 100 % of control under setting [11]; 100 % of control (dose: 100.0 mg/kg/injection, schedule: Q04DX003 (ip), vehicle: saline with Tween-80); 104 % of control under setting [12]; 96 % of control under setting [13].
As to `C[C@H](N)C(=O)N[C@@H]1[C@H]2C(=C(O)C[C@@H](O)[C@@H]2O)C(=O)O[C@]1(C)C(Cl)Cl`, the T/C reads like this: (dose: 0.78 mg/kg/injection, schedule: Q01DX009 (ip), vehicle: Klucel (hydroxypropylcellulose) (HPC)) 150 % of control and 167 % of control; (dose: 1.56 mg/kg/injection, schedule: Q01DX009 (ip), vehicle: Klucel (hydroxypropylcellulose) (HPC)) 161 % of control and 187 % of control and 205 % of control; (dose: 3.12 mg/kg/injection, schedule: Q01DX009 (ip), vehicle: Klucel (hydroxypropylcellulose) (HPC)) 117 % of control and 118 % of control.
On to `c1ccc2c(c1)[As]=c1ccccc1=[As]2` (stereo not drawn), for which the T/C reads like this: (dose: 0.79 mg/kg/injection, schedule: Q01DX009 (ip), vehicle: saline) 107 % of control; (dose: 1.56 mg/kg/injection, schedule: Q01DX009 (ip), vehicle: saline) 105 % of control and 118 % of control; (dose: 3.12 mg/kg/injection, schedule: Q01DX009 (ip), vehicle: saline) 122 % of control; under setting [9], 173 % of control.
Consider `CC1CCC2(CC1C)C(=O)NC(=O)NC2=O` (stereo not drawn), for which the T/C runs as follows: (dose: 12.5 mg/kg/injection, schedule: Q04DX003 (ip), vehicle: Klucel (hydroxypropylcellulose) (HPC)) 100 % of control; (dose: 25.0 mg/kg/injection, schedule: Q04DX003 (ip), vehicle: Klucel (hydroxypropylcellulose) (HPC)) 97 % of control; (dose: 50.0 mg/kg/injection, schedule: Q04DX003 (ip), vehicle: Klucel (hydroxypropylcellulose) (HPC)) 105 % of control; (dose: 100.0 mg/kg/injection, schedule: Q04DX003 (ip), vehicle: Klucel (hydroxypropylcellulose) (HPC)) 100 % of control.
As to `ON=C(C1CC1)C1CC1`, the T/C runs as follows: under setting [4], 95 % of control; under setting [1], 101 % of control; under setting [2], 104 % of control; under setting [3], 91 % of control.
In the case of `C[C@@H]1CCC[C@@H](NC(=O)N(CCCl)N=O)C1`, the T/C (dose: 18.75 mg/kg/injection, schedule: Q01DX009 (ip), vehicle: Klucel (hydroxypropylcellulose) (HPC)) was 176 % of control; the T/C (dose: 37.5 mg/kg/injection, schedule: Q01DX009 (ip), vehicle: Klucel (hydroxypropylcellulose) (HPC)) is 193 % of control; the T/C (dose: 75.0 mg/kg/injection, schedule: Q01DX009 (ip), vehicle: Klucel (hydroxypropylcellulose) (HPC)) was 249 % of control.
For the compound `CN(c1ccccc1)S(=O)(=O)c1ccccc1`, the T/C is, setting by setting: under setting [2], 95 % of control; under setting [3], 95 % of control; under setting [13], 100 % of control; under setting [14], 100 % of control; (dose: 400.0 mg/kg/injection, schedule: Q04DX003 (ip), vehicle: saline with Tween-80) 87 % of control.
Consider `CCC(NCC(C)C)NCC(C)C`, for which the T/C was 100 % of control under setting [10], 109 % of control under setting [11] and 95 % of control under setting [12].
Turning to `Cc1ccc2c(c1)NC(c1cccc(N=Cc3cc(Cl)cc(Cl)c3O)c1)c1cccn1-2` (stereo not drawn), the T/C is 86 % of control under setting [1], 91 % of control under setting [2] and 96 % of control under setting [3].
Take `CCn1c(Cl)c(/C=N\Nc2cccc([N+](=O)[O-])c2)c2ccccc21`: the T/C was 93 % of control (dose: 25.0 mg/kg/injection, schedule: Q01DX001 (ip), vehicle: Klucel (hydroxypropylcellulose) (HPC)); 87 % of control (dose: 50.0 mg/kg/injection, schedule: Q01DX001 (ip), vehicle: Klucel (hydroxypropylcellulose) (HPC)); 86 % of control and 93 % of control (dose: 100.0 mg/kg/injection, schedule: Q01DX001 (ip), vehicle: Klucel (hydroxypropylcellulose) (HPC)).
In the case of `O=C(CC(=O)N1N=C(N(c2ccccc2)c2ccccc2)CC1c1ccccc1)Nc1ccccc1Cl` (stereo not drawn), the T/C is 99 % of control under setting [15]; 99 % of control under setting [16]; 90 % of control (dose: 240.0 mg/kg/injection, schedule: Q01DX005 (ip), vehicle: saline with Tween-80).
Regarding `N#CCCCOCCOCCOCC(O)C(O)COCCOCCOCCCC#N` (stereo not drawn), the T/C (dose: 25.0 mg/kg/injection, schedule: Q01DX005 (ip), vehicle: suspension in saline) is 95 % of control; the T/C (dose: 50.0 mg/kg/injection, schedule: Q01DX005 (ip), vehicle: suspension in saline) was 99 % of control; the T/C (dose: 100.0 mg/kg/injection, schedule: Q01DX005 (ip), vehicle: suspension in saline) is 96 % of control; the T/C (dose: 200.0 mg/kg/injection, schedule: Q01DX005 (ip), vehicle: suspension in saline) is 98 % of control.
Take `COC(=O)C12N=NN(c3ccccc3)C1(C(=O)OC)C1CCC2C1` (stereo not drawn): the T/C was 95 % of control under setting [2], 100 % of control under setting [3] and 90 % of control under setting [14].
On to `Cc1csc2nc(-c3ccccc3)cn12`, for which the T/C runs as follows: under setting [15], 98 % of control; under setting [16], 96 % of control; (dose: 200.0 mg/kg/injection, schedule: Q01DX005 (ip), vehicle: saline with Tween-80) 97 % of control.
With `C=C1C(=O)OC2/C=C(\C)C(O)/C=C\C(C)(O)CC(OC(=O)/C(C)=C/C)C12` (stereo not drawn), the T/C is, setting by setting: (dose: 10.0 mg/kg/injection, schedule: Q01DX009 (ip), vehicle: saline) 114 % of control; (dose: 20.0 mg/kg/injection, schedule: Q01DX009 (ip), vehicle: saline) 101 % of control; (dose: 40.0 mg/kg/injection, schedule: Q01DX009 (ip), vehicle: saline) 108 % of control.
